Assay results published in paper PMC8979054 (RSC Advances, 2022).
Read-outs that look alike come from different tables or passages of the source. Blank lines part the entries; values can stand above or below the compound they belong to.

Columns and labels:
[1] = molecular target: T1, xanthine oxidase (Bos taurus, UniProt P80457); assay: Fixed-ratio combination analysis on XO; conditions: for DRI: in techtochrysin + allopurinol combination; for EC90: read-out: EC90 dose
[2] = molecular target: T1, xanthine oxidase; assay: In vitro xanthine oxidase inhibitory assay; type: biochemical, bovine
[3] = tested on: XO; conditions: cited from earlier work; for IC50: XO inhibition
[4] = Dm (median-effect dose), antilog of x-intercept of median-effect plot, CompuSyn
[5] = EC50 dose, single agent, dose for 50% inhibition of XO activity
[6] = single agent, dose for 10% inhibition of XO activity
[7] = single agent, dose for 30% inhibition of XO activity
[8] = single agent, dose for 70% inhibition of XO activity

T1 sequence (P80457 whole entry): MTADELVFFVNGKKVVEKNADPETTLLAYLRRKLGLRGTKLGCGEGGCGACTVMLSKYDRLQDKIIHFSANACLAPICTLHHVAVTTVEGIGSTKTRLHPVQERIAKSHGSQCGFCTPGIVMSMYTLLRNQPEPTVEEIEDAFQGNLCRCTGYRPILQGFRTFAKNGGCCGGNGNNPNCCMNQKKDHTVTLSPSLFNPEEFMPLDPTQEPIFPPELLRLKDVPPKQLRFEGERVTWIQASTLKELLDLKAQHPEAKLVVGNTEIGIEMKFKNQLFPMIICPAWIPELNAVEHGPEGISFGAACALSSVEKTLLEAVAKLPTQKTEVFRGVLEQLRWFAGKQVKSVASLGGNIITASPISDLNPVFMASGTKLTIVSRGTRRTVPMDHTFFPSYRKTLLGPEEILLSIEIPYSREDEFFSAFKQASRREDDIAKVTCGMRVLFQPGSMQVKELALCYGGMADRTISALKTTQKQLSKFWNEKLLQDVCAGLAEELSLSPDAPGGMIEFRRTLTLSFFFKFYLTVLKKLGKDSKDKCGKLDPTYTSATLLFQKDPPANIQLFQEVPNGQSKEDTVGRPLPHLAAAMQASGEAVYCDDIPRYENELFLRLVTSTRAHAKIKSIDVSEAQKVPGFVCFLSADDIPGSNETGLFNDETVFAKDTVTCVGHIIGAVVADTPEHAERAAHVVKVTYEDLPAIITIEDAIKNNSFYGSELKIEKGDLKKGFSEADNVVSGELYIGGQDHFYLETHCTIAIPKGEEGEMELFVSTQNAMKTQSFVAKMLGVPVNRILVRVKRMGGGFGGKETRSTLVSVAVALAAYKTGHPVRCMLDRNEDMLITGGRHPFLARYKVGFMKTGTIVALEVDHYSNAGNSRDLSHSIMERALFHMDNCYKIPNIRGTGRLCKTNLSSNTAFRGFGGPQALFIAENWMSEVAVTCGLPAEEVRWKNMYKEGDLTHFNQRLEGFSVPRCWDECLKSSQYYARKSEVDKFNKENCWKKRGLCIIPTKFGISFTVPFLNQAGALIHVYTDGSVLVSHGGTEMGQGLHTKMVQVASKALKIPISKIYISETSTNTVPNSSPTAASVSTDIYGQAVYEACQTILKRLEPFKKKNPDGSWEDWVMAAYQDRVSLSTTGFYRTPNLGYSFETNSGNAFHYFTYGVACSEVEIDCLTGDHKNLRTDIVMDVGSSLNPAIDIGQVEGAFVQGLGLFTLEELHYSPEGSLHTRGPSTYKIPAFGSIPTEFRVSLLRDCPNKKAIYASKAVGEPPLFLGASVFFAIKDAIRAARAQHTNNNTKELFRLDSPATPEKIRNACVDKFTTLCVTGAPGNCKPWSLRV

Compound: Oc1ncnc2[nH]ncc12 [Allopurinol, allopurinol, reference compound]
IC50 [3]: 13200 nM
EC10 dose [1]: 180 nM
EC30 dose [1]: 420 nM
EC70 dose [1]: 1840 nM
m (slope of the median-effect plot) [1]: 1.44
EC90 [1]: 4050 nM

Compound: O=c1cc(-c2ccc(O)cc2)oc2cc(O)cc(O)c12 [Apigenin, apigenin]
IC50 [3]: 6330 nM
type of XO inhibition [3]: competitive

Compound: Cc1nc(-c2ccc(OCC(C)C)c(C#N)c2)sc1C(=O)O [Febuxostat, febuxostat, reference compound]
EC10 dose [1]: 5 nM
EC30 dose [1]: 15 nM
EC70 dose [1]: 40 nM
m (slope of the median-effect plot) [1]: 1.57
EC90 [1]: 120 nM

Compound: O=C1c2c(O)cc(O)cc2O[C@H](c2ccccc2)[C@H]1O [Pinobanksin, pinobanksin]
type of XO inhibition [3]: competitive

Compound: O=c1c(O)c(-c2ccccc2)oc2cc(O)cc(O)c12 [Galangin, galangin]
type of XO inhibition [3]: competitive

Compound: O=c1c(O)c(-c2ccc(O)c(O)c2)oc2cc(O)cc(O)c12 [Quercetin, quercetin]
IC50 [3]: 2920 nM
type of XO inhibition [3]: mixed-type

Second part, led by results:

m (slope of the median-effect plot) ([1]; CompuSyn): 1.73
EC50 [1, 4]: 81 nM
EC50 [1, 5]: 84 nM
Dose of each drug alone required for the same effect ([1]; Fa 19%, techtochrysin/allopurinol analysis): 0.031 µM
Dose of each drug alone required for the same effect ([1]; Fa 35%, techtochrysin/allopurinol analysis): 0.064 µM
Dose of each drug alone required for the same effect ([1]; Fa 53%, techtochrysin/febuxostat analysis): 0.11 µM
Dose of each drug alone required for the same effect ([1]; Fa 57%, techtochrysin/allopurinol analysis): 0.15 µM
Dose of each drug alone required for the same effect ([1]; Fa 69%, techtochrysin/febuxostat analysis): 0.20 µM
Dose of each drug alone required for the same effect ([1]; Fa 75%, techtochrysin/febuxostat analysis): 0.25 µM
Dose of each drug alone required for the same effect ([1]; Fa 84%, techtochrysin/febuxostat analysis): 0.39 µM
Dose of each drug alone required for the same effect ([1]; Fa 91%, techtochrysin/allopurinol analysis): 0.98 µM
Dose of each drug alone required for the same effect ([1]; Fa 94%, techtochrysin/febuxostat analysis): 0.96 µM
Dose of each drug alone required for the same effect ([1]; Fa 97%, techtochrysin/allopurinol analysis): 3.19 µM
DRI ([1]; Fa […]% (70% effect level doses)): 3.51 fold
DRI ([1]; Fa […]% (90% effect level doses)): 3.63 fold
EC90 [1]: 880 nM
EC10 dose [1, 6]: 24 nM
EC30 dose [1, 7]: 46 nM
EC70 dose [1, 8]: 280 nM
IC50 [2]: 84 nM
fold enhancement in XO inhibitory activity compared with allopurinol ([2]; from IC50 values of Table 5): 10 folds
Compound: COc1cc(O)c2c(=O)cc(-c3ccccc3)oc2c1 [Techtochrysin, techtochrysin]

IC50 [2]: 1680 nM
Compound: O=c1cc(-c2ccc(O)c(O)c2)oc2cc(O)cc(O)c12 [Luteolin, luteolin]
IC50 [3]: 8210 nM
type of XO inhibition [3]: competitive

m (slope of the median-effect plot) ([1]; CompuSyn): 1.78
EC50 [1, 4]: 1040 nM
EC50 [1, 5]: 970 nM
Dose of each drug alone required for the same effect ([1]; Fa 16%, rosmarinic acid/allopurinol analysis): 0.32 µM
Dose of each drug alone required for the same effect ([1]; Fa 34%, rosmarinic acid/allopurinol analysis): 0.72 µM
Dose of each drug alone required for the same effect ([1]; Fa 42%, rosmarinic acid/febuxostat analysis): 0.87 µM
Dose of each drug alone required for the same effect ([1]; Fa 66%, rosmarinic acid/febuxostat analysis): 1.78 µM
Dose of each drug alone required for the same effect ([1]; Fa 69%, rosmarinic acid/allopurinol analysis): 2.06 µM
Dose of each drug alone required for the same effect ([1]; Fa 74%, rosmarinic acid/febuxostat analysis): 2.35 µM
Dose of each drug alone required for the same effect ([1]; Fa 82%, rosmarinic acid/febuxostat analysis): 3.42 µM
Dose of each drug alone required for the same effect ([1]; Fa 92%, rosmarinic acid/febuxostat analysis): 6.21 µM
Dose of each drug alone required for the same effect ([1]; Fa 93%, rosmarinic acid/allopurinol analysis): 8.35 µM
Dose of each drug alone required for the same effect ([1]; Fa 98%, rosmarinic acid/allopurinol analysis): 21.32 µM
EC90 [1]: 5220 nM
EC10 dose [1, 6]: 260 nM
EC30 dose [1, 7]: 480 nM
EC70 dose [1, 8]: 2440 nM
IC50 [2]: 970 nM
Compound: O=C(/C=C/c1ccc(O)c(O)c1)O[C@H](Cc1ccc(O)c(O)c1)C(=O)O [Rosmarinic acid, rosmarinic acid]
